Reference: patent US20140005163A1 (NOVARTIS AG, priority 2010, published 2014)
“And” between values parts separate entries of the source, which are not always exact repeats. Equal entries are not always repeated.

Legend:
PI3K beta = target: T1, PI3K beta (Homo sapiens, UniProt P42338); test: PI3K beta kinase assay (Kinase-Glo luminescence); type: biochemical
T1 construct: for the full-length p110-b subunit are generated and fused by overlapping PCR; p85(iSH2) fusion partner (see partner chain) (N); His tag (C); made in house; host or cells: baculovirus; Tn5 (Trichoplusia ni) or TiniPro insect cells
Procedure, shortened: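 p110β full-length/p85 iSH2 construct (BV-949), 25 nM, with 1 μM ATP and 10 μg/mL phosphatidylinositol in 10 mM Tris pH 7.5, 3 mM MgCl2, 50 mM NaCl, 0.05% CHAPS, 1 mM DTT. 60 min at room temperature; ATP remaining read by Kinase-Glo luminescence. IC50 from 8-point four-parameter logistic fit.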

PI3K delta = target: T2, PI3K delta (Homo sapiens, UniProt O00329); test: PI3K delta kinase assay (Kinase-Glo luminescence); type: biochemical
T2 construct: for the full-length p110-d subunit are generated and fused by overlapping PCR; p85(iSH2) fusion partner (see partner chain) (N); His tag (C); made in house; host or cells: baculovirus; Tn5 (Trichoplusia ni) or TiniPro insect cells
Procedure, shortened: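 Construct BV-1060, p85 iSH2–linker–full-length p110δ, His-tagged, at 10 nM, with 1 μM ATP and 10 μg/mL phosphatidylinositol in pH 7.5 Tris, 3 mM MgCl2, 50 mM NaCl, 0.05% CHAPS. Run 60 min at room temperature; remaining ATP read by Kinase-Glo luminescence; IC50 from 4-parameter logistic fit of 8 concentrations.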

[1] = Cellular CaCo2 permeability assay from apical to basal (A-B); type: in vitro ADME; conditions: human, Caco-2, read-out: Pe A-B (permeability)
Text: The permeability in 10^−6 cm/s of compounds of formula (I) have been confirmed for selected example using a cellular CaCo2 permeability assay from apical to basal (A-B): […]

PI3K gamma = target: T3, PI3K gamma (Homo sapiens, UniProt P48736); test: PI3K gamma kinase assay (Kinase-Glo luminescence); type: biochemical
T3 construct: His tag (C); made in house; host or cells: baculovirus (pVL1393); Tn5 or TiniPro insect cells; construct from Roger Williams lab, MRC LMB
Procedure, shortened: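 Luminescent ATP-depletion (Kinase-Glo) assay with 150 nM PI3Kγ, 1 μM ATP and 10 μg/mL phosphatidylinositol in 10 mM Tris-HCl pH 7.5, 3 mM MgCl2, 50 mM NaCl, 0.05% CHAPS, 1 mM DTT; 120 min at room temperature. Eight-point dilutions; IC50 by four-parameter logistic fit.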

T3 sequence (P48736 144-1102 limits assumed): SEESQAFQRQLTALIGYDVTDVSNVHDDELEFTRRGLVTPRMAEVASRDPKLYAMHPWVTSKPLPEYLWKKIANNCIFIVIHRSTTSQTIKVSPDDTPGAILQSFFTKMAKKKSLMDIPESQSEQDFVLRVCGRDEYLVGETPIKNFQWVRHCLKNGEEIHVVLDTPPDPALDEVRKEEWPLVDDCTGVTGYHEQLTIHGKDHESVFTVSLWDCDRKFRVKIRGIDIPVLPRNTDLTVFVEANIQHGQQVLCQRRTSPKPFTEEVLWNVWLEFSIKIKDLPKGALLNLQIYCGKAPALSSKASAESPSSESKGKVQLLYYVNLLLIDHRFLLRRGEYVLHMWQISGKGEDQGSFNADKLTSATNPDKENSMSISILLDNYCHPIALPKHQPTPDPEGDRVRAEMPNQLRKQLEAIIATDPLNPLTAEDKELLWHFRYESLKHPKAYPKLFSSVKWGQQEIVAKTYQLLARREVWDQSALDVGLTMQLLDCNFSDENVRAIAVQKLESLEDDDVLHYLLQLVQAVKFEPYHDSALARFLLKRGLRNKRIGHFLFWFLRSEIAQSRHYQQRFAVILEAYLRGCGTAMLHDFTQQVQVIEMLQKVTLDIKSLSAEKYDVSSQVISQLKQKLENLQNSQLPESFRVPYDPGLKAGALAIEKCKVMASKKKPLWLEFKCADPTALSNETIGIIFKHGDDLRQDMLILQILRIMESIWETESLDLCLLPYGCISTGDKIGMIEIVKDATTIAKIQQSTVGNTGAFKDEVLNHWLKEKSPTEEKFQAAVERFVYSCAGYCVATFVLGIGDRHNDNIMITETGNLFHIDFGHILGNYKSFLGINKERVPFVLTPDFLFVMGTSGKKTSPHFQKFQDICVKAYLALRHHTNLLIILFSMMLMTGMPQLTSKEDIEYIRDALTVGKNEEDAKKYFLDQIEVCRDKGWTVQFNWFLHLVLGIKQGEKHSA
T1 sequence (P42338 with tags, fused parts or gaps limits assumed): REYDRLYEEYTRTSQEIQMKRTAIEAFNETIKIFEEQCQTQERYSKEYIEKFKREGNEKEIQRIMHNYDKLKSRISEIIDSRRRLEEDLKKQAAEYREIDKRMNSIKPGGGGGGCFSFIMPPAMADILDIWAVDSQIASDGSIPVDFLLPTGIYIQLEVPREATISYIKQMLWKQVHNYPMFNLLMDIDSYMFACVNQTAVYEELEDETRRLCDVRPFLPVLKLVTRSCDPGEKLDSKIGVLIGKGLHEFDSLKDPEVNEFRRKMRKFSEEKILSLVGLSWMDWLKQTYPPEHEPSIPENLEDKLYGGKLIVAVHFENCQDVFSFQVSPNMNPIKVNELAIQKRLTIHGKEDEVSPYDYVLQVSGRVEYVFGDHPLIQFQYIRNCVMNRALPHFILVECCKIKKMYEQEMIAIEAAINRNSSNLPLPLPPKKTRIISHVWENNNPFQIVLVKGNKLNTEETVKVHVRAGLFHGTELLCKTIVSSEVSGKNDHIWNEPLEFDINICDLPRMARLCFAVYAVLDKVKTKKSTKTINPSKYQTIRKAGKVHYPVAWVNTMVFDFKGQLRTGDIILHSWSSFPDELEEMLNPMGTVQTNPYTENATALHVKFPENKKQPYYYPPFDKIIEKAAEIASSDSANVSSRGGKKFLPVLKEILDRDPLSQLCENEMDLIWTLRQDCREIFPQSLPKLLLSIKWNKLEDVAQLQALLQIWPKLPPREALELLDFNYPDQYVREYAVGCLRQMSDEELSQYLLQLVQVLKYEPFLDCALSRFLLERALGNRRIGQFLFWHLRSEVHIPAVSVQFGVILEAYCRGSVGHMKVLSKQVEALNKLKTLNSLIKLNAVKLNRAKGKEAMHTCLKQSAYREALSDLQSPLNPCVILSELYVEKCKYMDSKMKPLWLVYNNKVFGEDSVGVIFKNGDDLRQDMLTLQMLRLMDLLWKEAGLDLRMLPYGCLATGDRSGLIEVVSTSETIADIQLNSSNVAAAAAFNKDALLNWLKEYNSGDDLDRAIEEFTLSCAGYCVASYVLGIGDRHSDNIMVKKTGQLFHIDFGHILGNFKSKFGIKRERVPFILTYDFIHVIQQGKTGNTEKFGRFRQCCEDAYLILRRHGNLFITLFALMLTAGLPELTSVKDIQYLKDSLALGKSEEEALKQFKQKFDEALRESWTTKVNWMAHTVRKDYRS
T2 sequence (O00329 with tags, fused parts or gaps limits assumed): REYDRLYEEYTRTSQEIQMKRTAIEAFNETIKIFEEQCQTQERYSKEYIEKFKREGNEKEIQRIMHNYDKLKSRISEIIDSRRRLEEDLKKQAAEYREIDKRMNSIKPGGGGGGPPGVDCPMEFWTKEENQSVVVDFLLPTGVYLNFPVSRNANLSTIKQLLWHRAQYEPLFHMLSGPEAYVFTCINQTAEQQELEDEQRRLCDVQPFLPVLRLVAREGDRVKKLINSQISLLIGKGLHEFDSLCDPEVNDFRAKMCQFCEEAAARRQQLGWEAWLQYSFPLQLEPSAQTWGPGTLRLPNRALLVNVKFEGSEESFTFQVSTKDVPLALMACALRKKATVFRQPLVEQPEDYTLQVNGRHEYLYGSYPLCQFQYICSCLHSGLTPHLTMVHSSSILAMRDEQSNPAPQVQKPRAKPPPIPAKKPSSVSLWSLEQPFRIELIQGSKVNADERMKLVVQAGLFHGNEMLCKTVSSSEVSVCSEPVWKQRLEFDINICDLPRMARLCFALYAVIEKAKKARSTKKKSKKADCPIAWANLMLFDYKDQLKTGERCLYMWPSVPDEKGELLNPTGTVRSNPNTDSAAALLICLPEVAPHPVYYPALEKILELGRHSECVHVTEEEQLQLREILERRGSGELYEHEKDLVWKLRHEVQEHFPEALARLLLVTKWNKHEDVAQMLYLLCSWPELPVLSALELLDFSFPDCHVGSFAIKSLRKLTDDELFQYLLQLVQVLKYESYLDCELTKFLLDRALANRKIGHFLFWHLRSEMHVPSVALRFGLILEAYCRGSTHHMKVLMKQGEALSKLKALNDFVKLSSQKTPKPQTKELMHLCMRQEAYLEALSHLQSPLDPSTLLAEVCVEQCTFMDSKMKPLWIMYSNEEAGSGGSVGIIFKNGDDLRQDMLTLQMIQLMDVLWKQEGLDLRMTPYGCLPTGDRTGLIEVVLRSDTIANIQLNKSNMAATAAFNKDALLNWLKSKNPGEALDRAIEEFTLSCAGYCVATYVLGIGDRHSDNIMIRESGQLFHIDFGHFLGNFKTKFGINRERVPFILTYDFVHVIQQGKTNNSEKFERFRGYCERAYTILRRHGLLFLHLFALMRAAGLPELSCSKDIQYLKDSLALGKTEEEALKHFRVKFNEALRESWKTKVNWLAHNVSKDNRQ

| IC50 (PI3K beta) [nM] | IC50 (PI3K delta) [nM] | Papp A→B [1] [×10⁻⁶ cm/s] | IC50 (PI3K gamma) | SMILES |
| --- | --- | --- | --- | --- |
| 119 | 9 | 35.5 | – | CCn1cc(-n2c(=O)n(C)c3cnc4ccc(-c5cnc(OC)nc5OC)cc4c32)c(C)n1 [Example 234.1, 8-(2,4-Dimethoxy-pyrimidin-5-yl)-1-(1-ethyl-3-methyl-1H-pyrazol-4-yl)-3-methyl-1,3-dihydro-imidazo[4,5-c]quinolin-2-one] |
| 24 | 7 | 29.4 | 45 nM | COc1ccc(-c2ccc3ncc4[nH]c(=O)n(-c5cc(C)nn5C)c4c3n2)cc1OC [Example 252, 8-(3,4-Dimethoxy-phenyl)-1-(2,5-dimethyl-2H-pyrazol-3-yl)-1,3-dihydro-1,3,5,9-tetraaza-cyclopenta[a]naphthalen-2-one] |
| 185 | 32 | 26.6 | 319 nM | Cc1nn(C)cc1-n1c(=O)n(C)c2cnc3ccc(-c4cnc(N(C)C)nc4)cc3c21 [Example 6.2, 8-(2-Dimethylamino-pyrimidin-5-yl)-1-(1,3-dimethyl-1H-pyrazol-4-yl)-3-methyl-1,3-dihydro-imidazo[4,5-c]quinolin-2-one] |
| 6 | 6 | 39.7 | 123 nM | CCOc1cncc(-c2ccc3ncc4c(c3c2)n(-c2cn(C)nc2C)c(=O)n4C)c1 [Example 56.1, 1-(1,3-Dimethyl-1H-pyrazol-4-yl)-8-(5-ethoxy-pyridin-3-yl)-3-methyl-1,3-dihydro-imidazo[4,5-c]quinolin-2-one] |
| 40 | 14 | 5.9 | – | Cc1nn(C(C)C)cc1-n1c(=O)n(C)c2cnc3ccc(-c4cncc(C(C)(C)O)c4)cc3c21 [Example 215.1, 8-[5-(1-Hydroxy-1-methyl-ethyl)-pyridin-3-yl]-1-(1-isopropyl-3-methyl-1H-pyrazol-4-yl)-3-methyl-1,3-dihydro-imidazo[4,5-c]quinolin-2-one] |
| 100 | 25 | 13.9 | – | CNc1cc(-c2ccc3ncc4c(c3c2)n(-c2cn(C)nc2C)c(=O)n4C)cnc1COC [Example 159, 1-(1,3-Dimethyl-1H-pyrazol-4-yl)-8-(6-methoxymethyl-5-methylamino-pyridin-3-yl)-3-methyl-1,3-dihydro-imidazo[4,5-c]quinolin-2-one] |
| 21 | 31 | 24 | 92 nM | COc1cncc(-c2ccc3ncc4c(c3c2)n(-c2cn(C)nc2C)c(=O)n4C)c1 [Example 12, 1-(1,3-Dimethyl-1H-pyrazol-4-yl)-8-(5-methoxy-pyridin-3-yl)-3-methyl-1,3-dihydro-imidazo[4,5-c]quinolin-2-one] |
| 192 | 37 | 28.6 | 246 nM | CCOc1ccc(-c2ccc3ncc4c(c3c2)n(-c2cn(C)nc2C)c(=O)n4C)cn1 [Example 3.1, 1-(1,3-Dimethyl-1H-pyrazol-4-yl)-8-(6-ethoxy-pyridin-3-yl)-3-methyl-1,3-dihydro-imidazo[4,5-c]quinolin-2-one] |
| 468 | 35 | 15.8 | – | CCOc1cc(-c2ccc3ncc4c(c3c2)n(-c2cn(C)nc2C)c(=O)n4C)cnc1COC [Example 197.1, 1-(1,3-Dimethyl-1H-pyrazol-4-yl)-8-(5-ethoxy-6-methoxymethyl-pyridin-3-yl)-3-methyl-1,3-dihydro-imidazo[4,5-c]quinolin-2-one] |
| 45 | 16 | 29.1 | – | CNc1ncc(-c2ccc3ncc4c(c3c2)n(-c2cn(C)nc2C)c(=O)n4C)cc1Cl [Example 146.1, 8-(5-Chloro-6-methylamino-pyridin-3-yl)-1-(1,3-dimethyl-1H-pyrazol-4-yl)-3-methyl-1,3-dihydro-imidazo[4,5-c]quinolin-2-one] |
| – | 214 | 17 | – | CCOc1ccc(-c2ccc3ncc4c(c3c2)n(-c2cn(CC(=O)N(C)CC)nc2C)c(=O)n4C)cn1 [Example 136, 2-{4-[8-(6-Ethoxy-pyridin-3-yl)-3-methyl-2-oxo-2,3-dihydro-imidazo[4,5-c]quinolin-1-yl]-3-methyl-pyrazol-1-yl}-N-ethyl-N-methyl-acetamide] |
| 206 | 38 | – | 873 nM | COc1ncc(-c2ccc3ncc4c(c3c2)n(-c2cn(C)nc2C)c(=O)n4C)cn1 [Example 17.2, 1-(1,3-Dimethyl-1H-pyrazol-4-yl)-8-(2-methoxy-pyrimidin-5-yl)-3-methyl-1,3-dihydro-imidazo[4,5-c]quinolin-2-one] |
| 225 | 6 | – | 242 nM | CCn1cc(-n2c(=O)n(C)c3cnc4ccc(-c5ccc(N(C)C)nc5)cc4c32)c(C)n1 [Example 4.2, 8-(6-Dimethylamino-pyridin-3-yl)-1-(1-ethyl-3-methyl-1H-pyrazol-4-yl)-3-methyl-1,3-dihydro-imidazo[4,5-c]quinolin-2-one] |
| 190 | 218 | – | 150 nM | CNC(=O)c1ccc(-c2ccc3ncc4c(c3c2)n(-c2cn(C)nc2C)c(=O)n4C)cc1 [Example 43.1, 4-[1-(1,3-Dimethyl-1H-pyrazol-4-yl)-3-methyl-2-oxo-2,3-dihydro-1H-imidazo[4,5-c]quinolin-8-yl]-N-methyl-benzamide] |
| 409 | 203 | – | 250 nM | CCOc1cc(-c2ccc3ncc4c(c3c2)n(-c2cn(C)nc2C)c(=O)n4C)ccn1 [Example 91, 1-(1,3-Dimethyl-1H-pyrazol-4-yl)-8-(2-ethoxy-pyridin-4-yl)-3-methyl-1,3-dihydro-imidazo[4,5-c]quinolin-2-one] |
| 157 | 36 | – | 178 nM | COCCOc1ccc(-c2ccc3ncc4c(c3c2)n(-c2cn(C)nc2C)c(=O)n4C)cc1OC [Example 30.1, 1-(1,3-Dimethyl-1H-pyrazol-4-yl)-8-[3-methoxy-4-(2-methoxy-ethoxy)-phenyl]-3-methyl-1,3-dihydro-imidazo[4,5-c]quinolin-2-one] |
| 404 | 27 | – | 408 nM and 359 nM | Cc1nn(C(C)C)cc1-n1c(=O)n(C)c2cnc3ccc(-c4ccc(CO)nc4)cc3c21 [Example 16.3, 8-(6-hydroxymethyl-pyridin-3-yl)-1-(1-isopropyl-3-methyl-1H-pyrazol-4-yl)-3-methyl-1,3-dihydro-imidazo[4,5-c]quinolin-2-one] |
| 29 | 12 | – | 253 nM | CCn1cc(-n2c(=O)n(C)c3cnc4ccc(-c5cncc(OC(C)C)c5)cc4c32)c(C)n1 [Example 58.4, 1-(1-Ethyl-3-methyl-1H-pyrazol-4-yl)-8-(5-isopropoxy-pyridin-3-yl)-3-methyl-1,3-dihydro-imidazo[4,5-c]quinolin-2-one] |
| 51 | 20 | 33.5 | – | COCc1cncc(-c2ccc3ncc4c(c3c2)n(-c2cn(C)nc2Cl)c(=O)n4C)c1 [Example 54.2, 1-(3-Chloro-1-methyl-1H-pyrazol-4-yl)-8-(5-methoxymethyl-pyridin-3-yl)-3-methyl-1,3-dihydro-imidazo[4,5-c]quinolin-2-one] |
